Experimental data from patent US20230086718A1, “METHOD FOR PREDICTING THE SURVIVAL TIME OF A PATIENT SUFFERING FROM A CANCER” (INSERM (INSTITUT NATIONAL DE LA SANTÉ ET DE LA RECHERCHE …, priority 2020, published 2023).

Experiments:
Type in all cases: cell-based, human
[1] = tested on: Vδ1 T cells; assay: ELISA of IL-10, IL-8 and TGF-β in supernatants of expanded Vδ1 T cells
Text: Phytohemagglutinin (PHA) was purchased from Thermofisher Scientific. The anti-human CD3 (UCHT1), and the anti-human TCR γδ and TCR Vδ1 antibodies were purchased from Beckman Coulter (Brea, Calif., USA). Anti-human CD3, CD73, CD39 and their isotypically matched control mouse antibodies were from BD Biosciences (San Jose, Calif., USA). The anti-human TCR γδ antibody used for IHC was from Santa Cruz Biotechnology (USA). Recombinant human IL-2 (rhIL-2) was from Novartis Pharma (Rueil-Malmaison, France), and recombinant IL-21 (rhIL-21) was from Miltenyi Biotec (Paris, France). ELISA kits for detecting human IL-10 and IL-8 were from BD Biosciences (San Jose, Calif., USA). ELISA kit for the detection of human TGFβ was from RD system.
Expanded Vδ1 T cells (2.106 cells/mL) were incubated in fresh medium without cytokines in wells coated or not with the anti-CD3 antibody (UCHT1) for 6 h, and then supernatants were collected. IL-8 and IL-10 protein levels were assessed using the relevant BD Biosciences Opteia Kits. The mean values of duplicate samples from the same experiment are shown for each data point with their standard error of the mean (SEM).

[2] = tested on: Vδ1 T cells; assay: Adenosine measurement by MALDI TOF spectrometry in supernatants of amplified Vδ1 T cells
Method: Amplified Vδ1 T cells (2.106 cells/mL) were washed in cold PBS and resuspended in PBS supplemented with 50 mM AMP (Sigma) at 4° C. for 30 min. After centrifugation, adenosine levels in supernatants were analyzed by MALDI-TOF mass spectrometry, as previously described by Bastid et al..

[3] = tested on: Vδ1 T cells; assay: Flow cytometry of CD39, CD73 and PD-L1 expression in expanded Vδ1 T cells
Text: Peripheral Blood Mononuclear Cells (PBMCs) were obtained by density centrifugation on Ficoll-Paque (Eurobio, Les Ulis, France) of blood samples from healthy donors and breast cancer patients. Healthy donor samples were provided by the Etablissement Français du Sang (Convention EFS-OCPM no 21PLER2018-0069) and the blood of patients was provided by the ICM (BCB-EC-1-FR-ICM-ENR-269-004-CRB). […] Vδ1 T cells were isolated from PBMCs by a positive immunoselection using the anti-human Vδ1 antibody (Beckman Coulter) and anti-IgG1 magnetic beads (Miltenyi Biotec). Briefly, 300.106 cells were incubated with 10 μg of anti-human Vδ1 antibody in 5 ml of PBS supplemented with 2% SVF and EDTA (2 mM) for 1 hour at 4° C., then washed and incubated with 200 μl of anti-IgG1 magnetic beads for 1 hour at 4° C., then washed and collected on column according to the manufacturer's instructions (Miltenyi Biotec). Reproducible high purity of Vδ1 T cells (>90%) was obtained with this protocol. Purified Vδ1 T cells (2.106 cells/ml) were stimulated with 2 μg/mL of PHA in the presence of syngeneic macrophages isolated using their adherence properties. Briefly, PBMC (2.106/ml) were incubated in RPMI 10% FCS for 1 hour at 37° C. in 96 well-plates to allow to monocytes to adhere and differentiate in macrophages. Non-adherent cells were removed by 2 washes with RPMI medium. Purified Vδ1 T cells were added to macrophages, activated by PHA and expanded in the complete medium containing RPMI 1640/Glutamax medium supplemented with 5% human AB serum and 5% fetal calf serum (FCS) in the presence of rhIL-2 (control) or rhIL-2+rhIL-21 (experimental condition) at 37° C. in humidified atmosphere with 5% CO2. Every 2 days, fresh medium is added and after 1 week Vδ1 T cells were separated from adherent macrophages and amplified in the complete medium with cytokines for 2 more weeks before phenotyping and analysis.
Cells were first incubated at 4° C. for 30 min with Fc-block solution to minimize non-specific binding of antibodies to Fc receptors, then incubated with a dye cell viability and the panel of antibodies in the staining buffer (PBS-2% FCS) at 4° C. for 30 min, cells were then washed and fixed in 1% paraformaldehyde. Data were acquired with a Cytoflex cytometer (Beckman-Coulter) and analyzed with the FlowJo software.
Peripheral Blood Mononuclear Cells (PBMCs) were obtained by density centrifugation on Ficoll-Paque (Eurobio, Les Ulis, France) of blood samples from healthy donors and breast cancer patients. Healthy donor samples were provided by the Etablissement Français du Sang and the blood of patients was provided by the Institut regional du Cancer de Montpellier (ICM). […] Vδ1 T cells were isolated from PBMCs by a positive immunoselection using the anti-human Vδ1 antibody (Beckman Coulter) and anti-IgG1 magnetic beads (Miltenyi Biotec). Briefly, 300.106 cells were incubated with 10 μg of anti-human Vδ1 antibody in 5 ml of PBS supplemented with 2% SVF and EDTA (2 mM) for 1 hour at 4° C., then washed and incubated with 200 μl of anti-IgG1 magnetic beads for 1 hour at 4° C., then washed and collected on column according to the manufacturer's instructions (Miltenyi Biotec). Reproducible high purity of Vδ1 T cells (>90%) was obtained with this protocol. Purified Vδ1 T cells (2.106 cells/ml) were stimulated with 2 μg/mL of PHA in the presence of syngeneic macrophages isolated using their adherence properties. […]

Molecule | IL-10 production after TCR/CD3 activation ([1]; IL-21-amplified CD73+ Vδ1 T cells, not in the CD73− cells) | IL-10 in supernatants, absence of activation ([1]; IL-21-amplified Vδ1 T cells, CD73+ or CD73−, not detected in control cells) | IL-8 production ([1]; activated IL-21-amplified CD73+ Vδ1 T cells only) | TGF-β secretion ([1]; any of the tested conditions) | adenosine generated in the presence of AMP ([2]; IL-21-amplified Vδ1 T cells, control cells (only rhIL-2) ~0.4 μM) | percentage of CD39-positive cells ([3]; Vδ1 T cells from healthy donors expanded with rhIL-2+rhIL-21 vs rhIL-2 only (control)) | fraction of Vδ1 T cells expressing PD-L1 ([3]; cells exposed to rhIL-21, about 50% in the control condition) | fraction of CD39/CD73-positive Vδ1 T cells ([3]; expanded with rhIL-2+rhIL-21, vs 18% in control cells) | fraction of CD73-positive Vδ1 T cells ([3]; expanded with rhIL-2+rhIL-21, vs 20% in the control condition (rhIL-2 only)) | percentage of PD-L1+ in CD73-positive Vδ1 T cells ([3]; exposure to rhIL-21 vs control, around 60%) | adenosine production by control and IL-21-amplified Vδ1 T cells ([2]; in the presence of the CD73 inhibitor)
rhIL-21: recombinant IL-21 (rhIL-21) from Miltenyi Biotec, cytokine added with rhIL-2 to expand Vδ1 T cells | strongly increased | basal level | highly present | did not detect | ~1.4 µM | did not modify | 65% | 40% | 50% | did not modify | –
Nc1ncnc2c1ncn2[C@@H]1O[C@H](COP(=O)([O-])CP(=O)(O)O)[C@@H](O)[C@H]1O.[Na+] [APCP, adenosine 5′-(α,β-methylene)-diphosphate sodium salt, reference compound] | – | – | – | – | – | – | – | – | – | – | strongly impaired
